“And” between values parts separate entries of the source, which are not always exact repeats. Equal values may be shown once.
Columns and labels:
[1] = biological target: T1, human MATE1 (Homo sapiens, UniProt Q96FL8); assay: Uptake of [3H]MPP+ by MATE1-expressing HEK293 cells; assay type: cell-based; conditions: for MATE1-mediated uptake of [3H]MPP+, percentage of control: HEK293/hMATE1 minus mock, 0.25 nM [3H]MPP+, 0.5 min, 37°C; for MATE1-mediated uptake of MPP+, % of Control: after subtraction of uptake by mock cells; for MATE1-mediated uptake of MPP+, % of Control / C/M ratio of MPP+ uptake, MATE1-expressing cells: replicates and mean
T1 construct: expressed in transfected cells; host or cells: HEK293 (HEK293/hMATE1; gift from Dr. Inoue, Tokyo University of Pharmacy and Life Science)
T1 sequence (Q96FL8 1-570): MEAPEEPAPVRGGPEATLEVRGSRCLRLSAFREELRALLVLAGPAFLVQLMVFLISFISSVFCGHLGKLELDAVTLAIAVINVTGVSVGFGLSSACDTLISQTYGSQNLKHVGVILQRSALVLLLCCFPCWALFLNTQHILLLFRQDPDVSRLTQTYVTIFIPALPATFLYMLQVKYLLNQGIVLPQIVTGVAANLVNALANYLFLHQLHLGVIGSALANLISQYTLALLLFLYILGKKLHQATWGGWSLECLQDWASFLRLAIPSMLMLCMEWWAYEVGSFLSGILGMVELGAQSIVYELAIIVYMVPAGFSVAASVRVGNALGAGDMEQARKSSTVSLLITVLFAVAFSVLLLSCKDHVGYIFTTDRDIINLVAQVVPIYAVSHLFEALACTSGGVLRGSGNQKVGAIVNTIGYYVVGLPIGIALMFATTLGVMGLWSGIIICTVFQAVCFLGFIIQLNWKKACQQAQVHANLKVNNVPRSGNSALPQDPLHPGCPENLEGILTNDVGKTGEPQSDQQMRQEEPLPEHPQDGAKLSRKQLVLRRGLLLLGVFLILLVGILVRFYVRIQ
Protocol: HEK293 cells transfected with human MATE1 (HEK293/hMATE1) and vector alone (mock) were gifts from Dr. Inoue (Tokyo University of Pharmacy and Life Science). […] HEK293/mock and HEK293/hMATE1 cells were plated at a density of 3.0 × 10^5 cells/well on 24-well plates and cultured for two days before an uptake assay. […] Radioactivity was measured with a liquid scintillation counter (Hitachi Aloka Medical, Tokyo, Japan). Part of the lysate was used for the determination of total protein amount with Bio-Rad protein assay dye reagent. Uptake of MPP^+ was expressed as a cell-to-medium ratio (μL/mg protein) obtained by dividing the uptake amount by the concentration of substrate in the TM. Percentages of control were calculated as the ratio of MATE1-mediated uptake of MPP^+ that obtained after subtraction of the uptake of MPP^+ by mock cells in compound treated groups to that in control group.

[2] = Plasma concentration of oxonic acid and adenine in hyperuricemic rats; assay type: in vivo, rat; conditions: hyperuricemic rats given oral oxonic acid […] and adenine 0.1 g/kg; detection limit 100 μM for oxonic acid
[3] = test system: Mock cells; assay: Uptake of MPP+ by mock cells (background for MATE1-expressing cells); assay type: cell-based; conditions: replicates and mean
Protocol: Dunnett's test was used for uptake study to compare the control group to groups treated with drugs.
Percentages of control were calculated as the ratio of MATE1-mediated uptake of MPP^+ that obtained after subtraction of the uptake of MPP^+ by mock cells in compound treated groups to that in control group.

MATE1-mediated uptake of [3H]MPP+, percentage of control ([1]; 50 μM test compound): 101.5% | MATE1-mediated uptake of [3H]MPP+, percentage of control ([1]; 500 μM test compound): 98.2% | Inhibitory effect on MATE1-mediated MPP+ uptake ([1]; 50 and 500 μM of each): No inhibitory effects | MATE1-mediated uptake of MPP+, % of Control ([1]; Oxonic acid 50 µM, mean): 101.5 % of Control | C/M ratio of MPP+ uptake, MATE1-expressing cells ([1]; Oxonic acid 50 µM, mean): 197 µL/mg protein | MATE1-mediated uptake of MPP+, % of Control ([1]; Oxonic acid 500 µM, mean): 98.2 % of Control | C/M ratio of MPP+ uptake, MATE1-expressing cells ([1]; Oxonic acid 500 µM, mean): 199 µL/mg protein | Plasma concentration [2]: lower than 100 μM
SMILES: O=C(O)c1nc(=O)[nH]c(=O)[nH]1 [oxonic acid]
MATE1-mediated uptake of MPP+, % of Control ([1]; Oxonic acid 50 µM): 93.3 % of Control and 90.1 % of Control and 121.0 % of Control | C/M ratio of MPP+ uptake, MATE1-expressing cells ([1]; Oxonic acid 50 µM): 177 µL/mg protein and 232 µL/mg protein and 183 µL/mg protein | MATE1-mediated uptake of MPP+, % of Control ([1]; Oxonic acid 500 µM): 118.1 % of Control and 83.7 % of Control and 92.8 % of Control | C/M ratio of MPP+ uptake, MATE1-expressing cells ([1]; Oxonic acid 500 µM): 173 µL/mg protein and 190 µL/mg protein and 235 µL/mg protein | C/M ratio of MPP+ uptake, Mock cells ([3]; Oxonic acid 50 µM): 18.7 µL/mg protein and 13.1 µL/mg protein and 12.3 µL/mg protein | C/M ratio of MPP+ uptake, Mock cells ([3]; Oxonic acid 50 µM, mean): 14.7 µL/mg protein | C/M ratio of MPP+ uptake, Mock cells ([3]; Oxonic acid 500 µM): 19.2 µL/mg protein and 28.0 µL/mg protein and 20.9 µL/mg protein | C/M ratio of MPP+ uptake, Mock cells ([3]; Oxonic acid 500 µM, mean): 22.7 µL/mg protein
